{"source": "paper PMC12340070", "about": "“A novel modulator of IL-6R prevents inflammation-induced preterm birth and improves newborn outcome” (EMBO Molecular Medicine, 2025)", "key": {"placenta": {"system": "placenta", "assay": "HSJ633 biodistribution in placenta (fluorescence)", "assay_type": "in vivo, mouse", "details": "1 mg/kg s.c., LPS 10 μg i.p., GD17, 4 h, pregnant mice; 11–12 samples per group", "protocol": "Mice were euthanized after 4 h to analyze tissue distribution of the fluorescent-tagged compounds. Placentas were collected and fixed in 4% paraformaldehyde for 1 day and transferred into 30% sucrose for another day. Placental cryosections were stained with DAPI (0.0002 mg/mL) for nuclei. Images were captured using a ×20 objective with a Zeiss AxioScan.Z1. Fluorescence analysis was performed using ImageJ."}, "[1]": {"molecular_target": "T1, IL-6R (HEK-Blue IL-6 cells) (Homo sapiens, UniProt P08887)", "T1 construct": "host or cells: HEK-Blue IL-6 cells (HEK293-derived, H. sapiens)", "assay": "IL-6-induced IL-1β, TNF-α and IL-6 mRNA in HEK-Blue IL-6 cells, dose-response (RT-qPCR)", "assay_type": "cell-based", "description": "For in vitro dose–response experiments, HEK-blue IL-6 cells were allowed to acclimate for two passages to complete the stabilization of the receptor before experiments. Prior to experiments, cells at 70% of confluence were added to six-well plates, then starved overnight before media was changed 30 min prior to beginning the stimulation. After the 30 min pre-incubation, the cells were treated with HSJ633 (from 1 × 10^−12 to 1 × 10^−4 M) allowed to sit for 15 min, treated with 3.86 nM of IL-6, and incubated for 6 h. Cell lysis and mRNA extraction were performed by adding RiboZol. Samples were stored at −20 °C until RNA extraction and quantification (see section below).\nFor RT-qPCR experiments, cells were plated in 6-well plates at 70% of confluence and starved overnight. Cells were treated respectively with HSJ633, HSJ630, HSJ631, HSJ634, HSJ635, HSJ639 (1 × 10^−6 M), or TCZ (3.44 μM, based on validated doses (Sahraoui et al, [2014])) for TNF-α expression. For hIL-1, hIL-6, and hTNF-α expression, cells were treated with HSJ633 using concentrations ranging from 10^−11 to 10^−4 M, allowing for equilibrium over 15 min. Cells were then treated with […] of IL-6 for 6 h for both experiments. Cell lysis was performed by adding RIBOzol. Samples were stored at −20 °C until analysis by quantitative PCR. To determine the degree of phosphorylation of different proteins (STAT3, ERK, AKT, and p38), HEK-Blue IL-6 cells were treated with HSJ633 (10^−6 M), TCZ (3.44 uM) or vehicle for 30 min in DMEM only. Human IL-6 (3.86 nM) was added to the medium for 15 min to stimulate IL-6R pathways leading to STAT3, ERK, and AKT activation. For p38 activation, 25 min of stimulation with IL-6 was required. The wells were charged with radioimmunoprecipitation assay buffer (RIPA) at a concentration of 1×, cOmplete EDTA-free Protease Inhibitor Cocktail final concentration 1×, and phenylmethanesulfonyl fluoride (PMSF) 1 mM. Samples were shaken for 30 min followed by centrifugation at 12,000 RPM at 4 °C for 20 min to harvest the proteins. Proteins were stored at −80 °C until analysis by immunoblotting.\nSamples (30 mg) of uterus, placenta, fetal membranes, as well as the fetal lung, brain, and intestine, were thawed and deposited in lysis buffer according to the manufacturer’s protocol (Qiagen RNeasy Plus Mini Kit). Cell lysis and RNA extraction were performed directly into RiboZol. RNA was extracted from tissue fragments and cells according to the manufacturer’s protocol. RNA was quantified with a NanoDrop 1000 spectrophotometer and samples (500 ng) were treated with DNAse I (1U). RNA was used to synthesize cDNA using iScript reverse transcription superMix. Quantitative gene expression analysis was performed on a Light Cycler 96 with iTaq Universal SYBR Green Supermix. […]"}, "[2]": {"molecular_target": "T1, IL-6R (HEK-Blue IL-6 cells)", "assay": "[125I]-HSJ633 binding and displacement on HEK-Blue IL-6 cells", "details": "3–4 samples per group", "description": "(§1) The Bolton–Hunter reaction was utilized to conjugate the N-hydroxysuccinimide ester of 3-(4-hydroxyphenyl) propionic acid, a tyrosine-like residue, to primary amines as per the manufacturer’s instructions. Briefly, the peptide was dissolved in modification buffer (pH 9.0), then 100 μL of Bolton–Hunter Reagent was added and incubated for 3 h with periodic mixing. After incubating, the solution was dialyzed in PBS using a PlusOne Mini Dialysis Kit. Then 25 μL of peptide, 80 μL of PBS, and 25 μL of I^125 were combined in a precoated tube for 15 min. The reaction was stopped, and C-18 spin columns were used to perform washes and collect the iodine-marked peptide. Radioactivity measurements were made for each batch of radioactive peptides using a Gamma counter (Packard Cobra-II Auto Gamma Counter).\n(§2) The HEK-blue IL-6 cells were allowed to acclimatize for two passages to complete the stabilization of the receptor. Prior to experiments, media was changed to adjust for a maximum quantity of 500 μL per well. Subsequently, unlabeled HSJ633 (10^−4 M) was added and allowed to reach equilibrium for 15 min. HEK293 and HEK-Blue IL-6 cells were then treated with the labeled HSJ633 in a quantity equating to 50,000 CPM per well. […] All samples were measured using a Gamma counter (Packard Cobra-II Auto Gamma Counter)."}, "lung parenchyma": {"system": "lung parenchyma", "details": "mouse, in vivo", "description": "To determine the maximal delay of administration of HSJ633, LPS was injected as previously described, and HSJ633 was either administered 2 h or 6 h after the LPS injection at GD16. Dams were consistently observed for delivery until term (G18.5–19.5), and the body weight and survival rate (if 2 or more pups are alive, the litter is considered alive) of the neonates were recorded. The prematurity rate was assessed by determining the number of dams delivering prematurely (gestation length before 18.5 days) out of the total number of dams in the same group. The pups were sacrificed at PT7 for histological analysis.\nHistology was performed as described by Habelrih et al (Habelrih et al, [2023]). Images were captured using ×10 objective with a Zeiss AxioScan.Z1."}, "[3]": {"molecular_target": "T1, IL-6R (HEK-Blue IL-6 cells)", "assay": "TNF-α expression in HEK-Blue IL-6 cells (RT-qPCR), peptide screening", "assay_type": "cell-based", "details": "IL-6 3.86 nM 6 h, peptides 1 μM, TCZ 3.44 μM, RT-qPCR normalized to 18S, 2-9 samples per group", "description": "HEK293 and HEK-blue IL-6 cells were purchased and were used at fewer than 15 passages and tested mycoplasma negative. Cells were cultured in DMEM growth medium supplemented with 10% fetal bovine serum (FBS), 50 U/mL penicillin, and 50 μg/mL streptomycin. HEK-blue IL-6 cell media was also supplemented with HEK-Blue Selection (1:250). Ba/F3-polylinker, Ba/F3-mgp130, and Ba/F3-mgp130-IL-6Rα cells were cultured in RPMI 1640 growth medium supplemented with 10% FBS, 50 U/mL penicillin, and 50 μg/mL streptomycin. These cells were maintained in murine IL-3 at 10 ng/mL and puromycin at 1 μg/mL. Cells were cultured in standard experimental conditions (37 °C, 5% CO2).\nFor RT-qPCR experiments, cells were plated in 6-well plates at 70% of confluence and starved overnight. […] Samples were stored at −20 °C until analysis by quantitative PCR. […]\nSamples (30 mg) of uterus, placenta, fetal membranes, as well as the fetal lung, brain, and intestine, were thawed and deposited in lysis buffer according to the manufacturer’s protocol (Qiagen RNeasy Plus Mini Kit). […] RNA was quantified with a NanoDrop 1000 spectrophotometer and samples (500 ng) were treated with DNAse I (1U). […] Quantitative gene expression analysis was performed on a Light Cycler 96 with iTaq Universal SYBR Green Supermix. […]"}, "HEK293 cells": {"system": "HEK293 cells", "assay": "[125I]-HSJ633 binding on HEK293 cells devoid of IL-6R", "parameters": "species or system human", "details": "[125I]-HSJ633 10^−8 M, 1.5 h; four samples per group", "description": "as §1, §2"}}, "note": "pIC50: −log10 of the molar value. Entries after “also recorded” stand apart in the source; their conditions may differ. Where a SMILES comes first, the peptide text is derived from it. Where no end group is shown, it is not given here. [ ]: non-standard residue; d: D form.", "data": [{"compound": "O=C1OC2(c3ccc(O)cc3Oc3cc(O)ccc32)c2ccc(N=C=S)cc21", "note": "[FITC]", "values": [{"measurement": "placental fluorescence, LPS-treated", "setting": "placenta", "value": "increase in signal intensity in the placenta"}]}, {"compound": "CC(C)[C@@H](N)C(=O)N[C@H](CCCNC(=N)N)C(=O)N[C@H](CCCCN)C(=O)N[C@H](Cc1ccccc1)C(=O)N[C@H](CCC(N)=O)C(=O)N[C@H](CC(N)=O)C(=O)N[C@H](CO)C(=O)N1CCC[C@@H]1C(=O)N[C@H](C)C(=O)O", "note": "[HSJ633] (HELM PEPTIDE1{[dV].[dR].[dK].[dF].[dQ].[dN].[dS].[dP].[dA]}$$$$V2.0)", "values": [{"measurement": "pIC50", "setting": "[1]; HEK-Blue IL-6, HSJ633 10^−11–10^−4 M, IL-6 3.86 nM 6 h, RT-qPCR normalized to 18S, 3–8 samples per group, read-out: IC50 hIL-1β mRNA", "value": 9.10}, {"measurement": "pIC50", "setting": "[1]; HEK-Blue IL-6, HSJ633 10^−11–10^−4 M, IL-6 3.86 nM 6 h, RT-qPCR normalized to 18S, 3–8 samples per group, read-out: IC50 hIL-6 mRNA", "value": 8.70}, {"measurement": "pIC50", "setting": "[1]; HEK-Blue IL-6, HSJ633 10^−11–10^−4 M, IL-6 3.86 nM 6 h, RT-qPCR normalized to 18S, 3–8 samples per group, read-out: IC50 hTNF-a mRNA", "value": 9.70}, {"measurement": "pIC50", "setting": "[1]; HEK-Blue IL-6, IL-6 3.86 nM, 6 h, RT-qPCR, average over three cytokines, read-out: average IC50, inhibition of IL-6-induced expression of IL-1β, TNF-α, and IL-6 mRNA", "value": "~9.00"}, {"measurement": "pIC50", "setting": "[2]; 1.5 h room temperature, gamma counter, read-out: IC50, displacement of bound [125I]-HSJ633 by cold HSJ633 (% of specific binding)", "value": 7.92}, {"measurement": "alveolar density in lung, referee's reading of figure", "setting": "lung parenchyma", "value": "causes loss of alveolar density in the lung"}]}, {"compound": "IL-6: human IL-6, Peprotech 200-06, endogenous IL-6R ligand", "values": [{"measurement": "TNF-α expression", "setting": "[3]", "value": "induced TNF-α expression"}, {"measurement": "displacement of [125I]-HSJ633 by IL-6", "setting": "[2]; [125I]-HSJ633 10^−8 M, IL-6 10^−4 M", "value": "not by non-radioactive IL-6; also recorded: IL-6 does not displace binding of HSJ633"}]}, {"compound": "[^125I]-HSJ633: HSJ633 iodine-labeled after Bolton–Hunter reaction ([dV][dR][dK][dF][dQ][dN][dS][dP][dA]; also: Bolton–Hunter reagent (3-(4-hydroxyphenyl)propionic acid) conjugated to primary amines, iodinated with 125I)", "values": [{"measurement": "[125I]-HSJ633 binding on HEK293 cells devoid of IL-6R", "setting": "HEK293 cells", "value": "No binding"}]}]}
